{
  "source": "ChEMBL document CHEMBL1201862",
  "about": "“PubChem BioAssay data set” (2004)",
  "key": {"Cytochrome P450 1A2": {"molecular_target": "T1, Cytochrome P450 1A2 (Homo sapiens, UniProt P05177)", "T1 sequence (P05177 whole entry)": "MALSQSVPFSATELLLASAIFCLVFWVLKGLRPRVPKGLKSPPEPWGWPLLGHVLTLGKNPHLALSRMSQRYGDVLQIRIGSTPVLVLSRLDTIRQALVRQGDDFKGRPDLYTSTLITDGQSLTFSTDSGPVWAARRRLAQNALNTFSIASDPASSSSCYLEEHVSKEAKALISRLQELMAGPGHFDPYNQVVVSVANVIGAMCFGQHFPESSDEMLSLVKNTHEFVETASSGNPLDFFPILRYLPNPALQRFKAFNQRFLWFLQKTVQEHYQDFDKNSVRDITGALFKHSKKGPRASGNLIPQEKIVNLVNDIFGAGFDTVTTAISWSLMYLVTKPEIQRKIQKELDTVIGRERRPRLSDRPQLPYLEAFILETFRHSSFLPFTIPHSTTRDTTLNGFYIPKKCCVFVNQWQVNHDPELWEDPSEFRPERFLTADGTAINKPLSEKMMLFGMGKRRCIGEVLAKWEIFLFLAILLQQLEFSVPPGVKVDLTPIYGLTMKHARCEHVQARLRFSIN"}, "Cytochrome P450 2C19": {"molecular_target": "Cytochrome P450 2C19 (Homo sapiens, UniProt P33261)", "sequence (P33261 whole entry)": "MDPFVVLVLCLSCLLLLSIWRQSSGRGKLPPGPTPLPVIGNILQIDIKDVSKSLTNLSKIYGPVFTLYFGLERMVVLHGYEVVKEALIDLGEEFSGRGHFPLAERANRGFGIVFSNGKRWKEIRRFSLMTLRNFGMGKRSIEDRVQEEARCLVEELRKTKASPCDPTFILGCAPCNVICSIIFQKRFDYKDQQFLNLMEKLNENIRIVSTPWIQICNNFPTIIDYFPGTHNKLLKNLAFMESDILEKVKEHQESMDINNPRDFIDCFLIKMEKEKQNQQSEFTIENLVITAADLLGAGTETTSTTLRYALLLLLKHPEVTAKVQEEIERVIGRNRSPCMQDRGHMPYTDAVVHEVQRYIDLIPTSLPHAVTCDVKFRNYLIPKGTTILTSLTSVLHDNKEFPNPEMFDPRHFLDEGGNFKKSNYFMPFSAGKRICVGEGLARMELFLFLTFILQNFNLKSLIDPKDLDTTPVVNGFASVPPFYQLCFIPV", "assay": "Cytochrome panel assay with activity outcomes. Panel member name: p450-cyp2c19 Compounds with AC50 equal or less than 10 uM are considered active", "type": "functional", "details": "read-out: AC50"}, "Cytochrome P450 2D6": {"molecular_target": "Cytochrome P450 2D6 (Homo sapiens, UniProt P10635)", "sequence (P10635 whole entry)": "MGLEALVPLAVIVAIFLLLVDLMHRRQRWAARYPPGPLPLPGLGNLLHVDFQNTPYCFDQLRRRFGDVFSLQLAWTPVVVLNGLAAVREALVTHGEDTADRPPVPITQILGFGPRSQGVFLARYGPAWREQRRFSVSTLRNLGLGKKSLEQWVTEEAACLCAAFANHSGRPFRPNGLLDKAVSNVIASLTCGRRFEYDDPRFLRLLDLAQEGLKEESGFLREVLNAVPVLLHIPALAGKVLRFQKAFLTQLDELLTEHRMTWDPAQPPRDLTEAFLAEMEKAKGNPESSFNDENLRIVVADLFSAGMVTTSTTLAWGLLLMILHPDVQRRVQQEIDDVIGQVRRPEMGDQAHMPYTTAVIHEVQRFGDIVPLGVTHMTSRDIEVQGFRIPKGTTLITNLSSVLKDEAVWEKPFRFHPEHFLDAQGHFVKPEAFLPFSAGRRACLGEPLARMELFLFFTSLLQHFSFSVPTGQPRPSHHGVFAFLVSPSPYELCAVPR"}, "Cytochrome P450 2C9": {"molecular_target": "Cytochrome P450 2C9 (Homo sapiens, UniProt P11712)", "sequence (P11712 whole entry)": "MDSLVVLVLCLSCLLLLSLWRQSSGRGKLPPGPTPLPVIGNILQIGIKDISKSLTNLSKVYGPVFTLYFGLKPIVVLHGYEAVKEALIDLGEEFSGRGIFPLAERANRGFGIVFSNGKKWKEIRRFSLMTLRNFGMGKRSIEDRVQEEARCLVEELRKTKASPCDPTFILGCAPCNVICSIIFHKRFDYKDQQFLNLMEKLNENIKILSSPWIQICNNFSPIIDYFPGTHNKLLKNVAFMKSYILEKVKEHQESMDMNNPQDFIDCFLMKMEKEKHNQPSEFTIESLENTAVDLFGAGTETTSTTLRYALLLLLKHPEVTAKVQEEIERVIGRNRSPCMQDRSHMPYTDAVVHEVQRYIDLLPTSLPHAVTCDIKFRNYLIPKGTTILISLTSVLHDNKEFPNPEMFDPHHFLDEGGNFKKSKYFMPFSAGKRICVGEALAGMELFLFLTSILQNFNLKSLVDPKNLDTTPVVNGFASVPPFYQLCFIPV"}, "[1]": {"molecular_target": "T2, Corticotropin-releasing factor receptor 2/Corticotropin-releasing factor-binding protein (Homo sapiens, UniProt P24387+Q13324)", "T2 sequence (Q13324 whole entry)": "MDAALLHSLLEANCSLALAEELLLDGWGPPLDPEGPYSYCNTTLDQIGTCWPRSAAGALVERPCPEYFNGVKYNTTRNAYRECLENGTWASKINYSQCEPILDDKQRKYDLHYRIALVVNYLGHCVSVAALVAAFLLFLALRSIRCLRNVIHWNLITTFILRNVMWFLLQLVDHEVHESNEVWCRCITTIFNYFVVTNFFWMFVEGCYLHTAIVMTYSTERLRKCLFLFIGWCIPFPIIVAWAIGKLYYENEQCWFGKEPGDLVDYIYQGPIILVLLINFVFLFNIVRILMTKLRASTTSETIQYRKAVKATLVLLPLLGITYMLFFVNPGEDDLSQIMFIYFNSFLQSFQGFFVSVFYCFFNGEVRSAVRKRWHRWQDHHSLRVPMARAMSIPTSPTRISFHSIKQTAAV", "T2 sequence (P24387 whole entry)": "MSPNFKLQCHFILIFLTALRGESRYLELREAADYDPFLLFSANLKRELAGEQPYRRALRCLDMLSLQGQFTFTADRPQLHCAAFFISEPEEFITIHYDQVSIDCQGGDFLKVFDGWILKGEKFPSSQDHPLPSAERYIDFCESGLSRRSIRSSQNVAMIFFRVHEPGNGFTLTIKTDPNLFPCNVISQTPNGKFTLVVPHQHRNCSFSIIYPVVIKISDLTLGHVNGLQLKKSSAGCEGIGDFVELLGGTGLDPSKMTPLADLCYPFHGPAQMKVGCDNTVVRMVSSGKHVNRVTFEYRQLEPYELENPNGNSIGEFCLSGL", "assay": "activators of CRF receptor 2 with binding protein – uHTS hits, confirmation (AID 602473)", "type": "functional", "details": "read-out: EC50_Mean"}, "[2]": {"molecular_target": "T2, Corticotropin-releasing factor receptor 2/Corticotropin-releasing factor-binding protein", "assay": "Dose Response confirmation of uHTS hits for small molecule antagonists of the CRF-binding protein and CRF-R2 receptor complex.", "type": "functional", "details": "read-out: IC50_Mean"}, "[3]": {"assay": "inhibitors of SNCA 5'UTR-driven reporter translation, confirmation, H4 neuroglioma cells, luminescence (AID 1988)", "type": "functional, cell-based"}, "[4]": {"assay": "Luminescence Cell-Based Dose Response HTS to Identify Inhibitors of 5'UTR Stem-Loop Driven Prion Protein mRNA Translation in H4 Neuroglioblastoma Cells. [Related pubchem assays: 1827 (Project Summary), 1813 (Primary HTS)]", "type": "functional"}, "[5]": {"assay": "inhibitors of firefly luciferase expression or activity, dose response, H4 neuroglioma cells, luminescence (AID 1990)", "type": "functional, cell-based"}, "[6]": {"molecular_target": "T3, Ubiquitin-conjugating enzyme E2 N (Homo sapiens, UniProt P61088)", "T3 sequence (P61088 whole entry)": "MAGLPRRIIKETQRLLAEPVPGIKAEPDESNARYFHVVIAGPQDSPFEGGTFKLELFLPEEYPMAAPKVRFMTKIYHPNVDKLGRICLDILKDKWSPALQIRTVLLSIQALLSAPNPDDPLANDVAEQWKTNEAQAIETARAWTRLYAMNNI", "type": "functional"}, "Cytochrome P450 3A4": {"molecular_target": "Cytochrome P450 3A4 (Homo sapiens, UniProt P08684)", "sequence (P08684 whole entry)": "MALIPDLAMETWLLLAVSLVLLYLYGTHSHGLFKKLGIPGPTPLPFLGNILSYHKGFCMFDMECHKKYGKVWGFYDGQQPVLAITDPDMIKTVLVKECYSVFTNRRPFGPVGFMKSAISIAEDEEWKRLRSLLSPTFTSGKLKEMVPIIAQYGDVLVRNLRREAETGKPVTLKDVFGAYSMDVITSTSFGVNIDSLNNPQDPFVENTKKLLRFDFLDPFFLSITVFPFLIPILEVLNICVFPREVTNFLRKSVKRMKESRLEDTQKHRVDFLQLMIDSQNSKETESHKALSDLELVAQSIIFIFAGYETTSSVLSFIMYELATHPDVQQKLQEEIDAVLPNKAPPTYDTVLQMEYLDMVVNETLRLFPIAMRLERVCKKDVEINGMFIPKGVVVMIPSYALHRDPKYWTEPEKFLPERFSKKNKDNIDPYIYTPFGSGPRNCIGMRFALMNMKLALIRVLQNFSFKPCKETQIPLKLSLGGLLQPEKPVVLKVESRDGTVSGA"}, "[7]": {"molecular_target": "Luciferin 4-monooxygenase (Photinus pyralis, UniProt P08659)", "sequence (P08659 whole entry)": "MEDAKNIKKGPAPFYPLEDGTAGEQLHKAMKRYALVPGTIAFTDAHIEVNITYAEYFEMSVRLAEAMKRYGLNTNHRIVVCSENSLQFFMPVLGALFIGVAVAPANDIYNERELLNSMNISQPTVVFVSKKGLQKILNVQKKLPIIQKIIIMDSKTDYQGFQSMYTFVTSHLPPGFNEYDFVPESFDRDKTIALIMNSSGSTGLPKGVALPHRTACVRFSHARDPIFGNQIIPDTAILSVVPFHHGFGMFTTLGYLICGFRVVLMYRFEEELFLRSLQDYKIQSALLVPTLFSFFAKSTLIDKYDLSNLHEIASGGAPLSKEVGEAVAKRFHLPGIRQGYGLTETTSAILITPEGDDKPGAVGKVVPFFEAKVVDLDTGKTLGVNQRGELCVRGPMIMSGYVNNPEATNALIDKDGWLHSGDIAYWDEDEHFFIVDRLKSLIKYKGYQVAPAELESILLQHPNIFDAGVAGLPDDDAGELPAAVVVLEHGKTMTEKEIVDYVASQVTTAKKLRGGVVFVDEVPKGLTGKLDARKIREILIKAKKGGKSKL", "assay": "firefly luciferase enzyme inhibitors, dose response, biochemical, luminescence (AID 1891)"}, "[8]": {"assay": "Luminescence Cell-Based Dose Confirmation HTS to Identify Inhibitors of Platelet Dense Granule Release. [Related pubchem assays: 1663 (Primary HTS), 1678 (Summary of Project)]", "type": "functional"}},
  "note": "The source made the active and inactive calls.",
  "data": [
    {"compound": "Cc1cc(C)c(S(=O)(=O)Nc2cccc(C(F)(F)F)c2)c(C)c1", "values": [
      {"measurement": "AC50", "setting": "Cytochrome P450 1A2", "value": "39.8 µM (inconclusive)"}
    ]},
    {"compound": "O=C(CSc1nnc(-c2cccc(S(=O)(=O)N3CCOCC3)c2)n1C1CCCCCC1)NCc1ccccc1", "values": [
      {"measurement": "AC50", "setting": "Cytochrome P450 1A2", "value": "39.8 µM (inconclusive)"},
      {"measurement": "AC50", "setting": "Cytochrome P450 2C19", "value": "31.6 µM (inconclusive)"},
      {"measurement": "AC50", "setting": "Cytochrome P450 2D6", "value": "7.94 µM (inconclusive)"},
      {"measurement": "AC50", "setting": "Cytochrome P450 2C9", "value": "14.1 µM (inconclusive)"}
    ]},
    {"compound": "O=C(CN1CCCCC1)Nc1cccc([N+](=O)[O-])c1", "values": [
      {"measurement": "AC50", "setting": "Cytochrome P450 1A2", "value": "39.8 µM (inconclusive)"},
      {"measurement": "AC50", "setting": "Cytochrome P450 2C19", "value": "14.1 µM (inconclusive)"},
      {"measurement": "AC50", "setting": "Cytochrome P450 2D6", "value": "15.8 µM (inconclusive)"}
    ]},
    {"compound": "COc1ccc(C2C3=C(O)CC(C)(C)CC3=Nc3c2c(=O)n(C)c(=O)n3C)cc1OC", "note": "(stereo not given)", "values": [
      {"measurement": "EC50", "setting": "[1]", "value": "> 53 µM (inactive)"},
      {"measurement": "IC50", "setting": "[2]", "value": "> 47.1 µM (inactive)"}
    ]},
    {"compound": "N#Cc1nc(Nc2cccc(Cl)c2)c2ncn(C3CCCC3)c2n1", "values": [
      {"measurement": "EC50", "setting": "[1]", "value": "> 53 µM (inactive)"},
      {"measurement": "IC50", "setting": "[2]", "value": "> 47.1 µM (inactive)"}
    ]},
    {"compound": "CCCC(=O)Nc1cc(C(=O)N2CCC3(CC2)OCCO3)ccc1S(=O)(=O)c1ccc(C)cc1", "values": [
      {"measurement": "EC50", "setting": "[3]", "value": "> 120 µM (not active)"},
      {"measurement": "EC50", "setting": "[4]", "value": "> 120 µM (not active)"},
      {"measurement": "EC50", "setting": "[5]", "value": "> 120 µM (not active)"}
    ]},
    {"compound": "Cc1csc(NC(=O)Cc2ccc(Br)cc2)n1", "values": [
      {"measurement": "EC50", "setting": "[1]", "value": "> 53 µM (inactive)"},
      {"measurement": "IC50", "setting": "[2]", "value": "> 47.1 µM (inactive)"}
    ]},
    {"compound": "O=C(NCCc1cccnc1)C1CCC(=O)N(Cc2ccc(Cl)cc2)C1", "note": "(stereo not given)", "values": [
      {"measurement": "EC50", "setting": "[1]", "value": "> 53 µM (inactive)"},
      {"measurement": "IC50", "setting": "[2]", "value": "> 47.1 µM (inactive)"}
    ]},
    {"compound": "C#CCOCCOCCOCCNc1nc(N2CCN(C(=O)[C@H]([C@@H](C)CC)n3cc(CCCCN)nn3)CC2)nc(N2CCN(C(=O)[C@H]([C@@H](C)CC)n3cc(CCCN=C(N)N)nn3)CC2)n1", "values": [
      {"measurement": "IC50", "setting": "[6]", "value": "> 20 µM (inactive)"}
    ]},
    {"compound": "CO/C(O)=C1\\C(C)=Nc2nnnn2C1c1cc(OC)ccc1OC", "note": "(stereo not given)", "values": [
      {"measurement": "EC50", "setting": "[3]", "value": "> 120 µM (not active)"},
      {"measurement": "EC50", "setting": "[4]", "value": "18.3 µM (active)"},
      {"measurement": "EC50", "setting": "[5]", "value": "> 120 µM (not active)"}
    ]},
    {"compound": "COC(=O)[C@@]1(Cc2ccc(OC)cc2)[C@@H]2[C@@H](CC(=O)[C@H]2CC(=O)C(=O)N(C)C)CN1C(=O)c1ccccc1", "values": [
      {"measurement": "AC50", "setting": "Cytochrome P450 1A2", "value": "2 µM (inconclusive)"},
      {"measurement": "AC50", "setting": "Cytochrome P450 2C9", "value": "39.8 µM (inconclusive)"}
    ]},
    {"compound": "O=C(O)CCC/C=C\\C[C@@H]1CO[C@H](C(F)(F)F)O[C@@H]1c1ccccc1O", "values": [
      {"measurement": "AC50", "setting": "Cytochrome P450 1A2", "value": "39.8 µM (inconclusive)"},
      {"measurement": "AC50", "setting": "Cytochrome P450 2C19", "value": "10 µM (inconclusive)"},
      {"measurement": "AC50", "setting": "Cytochrome P450 3A4", "value": "15.8 µM (inconclusive)"},
      {"measurement": "AC50", "setting": "Cytochrome P450 2C9", "value": "20 µM (inconclusive)"}
    ]},
    {"compound": "CCOC(=O)c1c(NC(=O)Cc2cccs2)sc(C(=O)N2CCCCC2)c1C", "values": [
      {"measurement": "EC50", "setting": "[3]", "value": "> 120 µM (not active)"},
      {"measurement": "EC50", "setting": "[4]", "value": "22.2 µM (active)"},
      {"measurement": "EC50", "setting": "[5]", "value": "14.6 µM (active)"}
    ]},
    {"compound": "N#Cc1cccc(NCC(=O)Nc2ccc3c(c2)OCCO3)c1", "values": [
      {"measurement": "EC50", "setting": "[1]", "value": "> 53 µM (inactive)"},
      {"measurement": "IC50", "setting": "[2]", "value": "> 47.1 µM (inactive)"}
    ]},
    {"compound": "CS(=O)(=O)N1CCN(c2c(Cl)cccc2[N+](=O)[O-])CC1", "values": [
      {"measurement": "AC50", "setting": "Cytochrome P450 1A2", "value": "28.2 µM (inconclusive)"},
      {"measurement": "AC50", "setting": "Cytochrome P450 2C9", "value": "0.251 µM (inconclusive)"}
    ]},
    {"compound": "COc1ccc(-c2nn(-c3ccccc3)cc2C(=O)O)cc1", "values": [
      {"measurement": "EC50", "setting": "[7]", "value": "> 112 µM (not active)"},
      {"measurement": "EC50", "setting": "[8]", "value": "> 112 µM (not active)"}
    ]},
    {"compound": "O=C(O)[C@H]1C[C@@H](CP(=O)(O)O)CCN1", "values": [
      {"measurement": "AC50", "setting": "Cytochrome P450 1A2", "value": "25.1 µM (inconclusive)"}
    ]},
    {"compound": "Cc1cccc(N2CCc3c2nc2ccccc2c3N)c1", "values": [
      {"measurement": "IC50", "setting": "[6]", "value": "> 20 µM (inactive)"}
    ]},
    {"compound": "Cc1ccc(CNc2nc(N)c([N+](=O)[O-])c(Nc3ccc(F)cc3)n2)cc1", "values": [
      {"measurement": "AC50", "setting": "Cytochrome P450 1A2", "value": "1.12 µM (inconclusive)"},
      {"measurement": "AC50", "setting": "Cytochrome P450 3A4", "value": "2 µM (inconclusive)"},
      {"measurement": "AC50", "setting": "Cytochrome P450 2C9", "value": "3.55 µM (inconclusive)"}
    ]},
    {"compound": "Cc1noc(C)c1NC(=O)Nc1ccc2c(c1)C(=O)N([C@H](C)CO)C[C@H](C)[C@@H](CN(C)S(=O)(=O)c1ccc(F)cc1)O2", "values": [
      {"measurement": "EC50", "setting": "[1]", "value": "> 53 µM (inactive)"},
      {"measurement": "IC50", "setting": "[2]", "value": "> 47.1 µM (inactive)"}
    ]}
  ]
}
